Source: US20120213789A1, “New Molecular Target for Treatment of Cancer” (priority 2001, published 2012)

Key:
[1] = tested on: C4-2B Metastatic Prostate Cell Line; assay: UROC28/Bcl-2 label flow cytometry after SPB treatment; type: cell-based, human; conditions: for Total Bcl-2 / Total UC2BC: section UROC28/Bcl-2
Procedure: (§1) Cells were grown to 70-80% confluence at 37° C. and 5% CO2 in T-75 tissue culture plastic flasks. SPB stock solution was added to final concentrations of 0.5, 5.0, 10.0, and 25.0 mM in appropriate fresh media to the cell cultures. Cells were incubated at 37° C. and 5% CO2 for 72 hours. Attached cells were then harvested using a solution of 0.05% trypsin and 0.53 mM EDTA (Invitrogen Corp.). Attached cells were then pooled with any the detached cells and washed with PBS pH 7.2. Cell numbers and percent viability were determined using Trypan blue dye exclusion and a hemacytometer. At the time of their use in an experiment the viability was usually about 85% for untreated cells and a range of about 15-70% for treated cells, with the lower viabilities found at higher SPB concentrations (Thompson C, 1995; Cory et al., 1998; van Engeland et al., 1996).
(§2) UC28(C) is 2.14 mg/ml rabbit polyclonal aliquot directed against the inventors' UC28 patented biomarker developed by UCor R&D gene discovery program. The Antibody was produced against a twenty amino acid (AA) synthetic peptide from the predicted AA sequence (AA 21-37) UCor, Inc. 840 Research Parkway Oklahoma City, Okla. 73104.
(§3) Goat Anti-Rabbit CY5 polyclonal Fluorchrome was used as the secondary conjugate for UC28 C rabbit polyclonal antibody and a background control for UC28 C polyclonal. Vendor is Jackson ImmunoResearch Laboratories, Inc. 872 West Baltimore Pike, P.O. Box 9 West Grove, Pa. 19390.
(§4) Bc12 IgG1 kappa-FITC isomer 1 is a purified monoclonal mouse specific for Bc1-2 protein. Vendor is Dalco Corporation 6392 Via Real, Carpinteria, Calif. 93013 USA.
(§5) MsIgG1 kappa-FITC isomer 1 is a purified isotype specific control for Bc1-2 monoclonal antibody. Vendor is Dako Corporation 6392 Via Real, Carpinteria, Calif. 93013 USA.
(§6) Cytofix/Cytoperm™ ICit enables fixation and permeabilization of cells prior to staining with fluorochrome-conjugated antibodies. Vendor is BD-PharMingen, 10975 Torreyana Road, San Diego, Calif. 92121-1106.
(§7) A Coulter Elite engineered with a triple laser system was used to analyze all samples. Coulter control beads were used to align lasers for the dual label testing of cell samples. Laser alignment was required for both the Argon (488 nm line) laser and HeNe (633 nm line) laser. These alignments were performed prior to all measurements with the Argon laser (488 nm line) using fluorophores for FITC, RPE, PI and the HeNe laser (633 nm line) for the Cy5 fluorophores being used for the experiments described below. The histographs, voltage settings, gates, color compensation, and pressures were established prior to all sample processing.
(a) Tissue culture cells (MLC-SV40, LNCaP and C 4-2B) were aliquoted at concentration of 1×10^6 per teach 12×75 mm polystyrene tube. Label tubes as follows: • (i) No Antibody • (ii) Secondary GAR-CY5 polyclonal=(control for UC28 CIDGARCY5 polyclonal) vs MsIgG1-RPE (control for FAS-RPE monoclonal) • (iii) UC28 C-IDGARCY5 polyclonal vs FAS (CD45)—RPE monoclonal • (iv) SecondaryGAR-CY5 polyclonal=(control for UC28 C-IDGARCY5 polyclonal) vs MsIgG1-FITC (control for Bc12-FITC monoclonal) • (v) UC28 C-IDGARCY5 polyclonal vs Bc12-FITC monoclonal • (vi) UC28 C-IDGARCY5 Polyclonal=(single label for checking instrument after setting Coulter Elite flow cytometer for dual analysis using the three different fluorchromes.) • (vii) FAS ([…])—RPE monoclonal=(single label for checking instrument after setting Coulter Elite flow cytometer for dual analysis using the three different fluorchromes.) • (viii) Bc12-FITC monoclonal=(single label for checking instrument after setting Coulter Elite flow cytometer for dual analysis using the three different fluorchromes.)
(c) A volume of 100 μl of UC28 C rabbit polyclonal unconjugated antibody was added to the appropriately labeled tubes. All other tubes received 100 μl PBS (pH7.3) and all tubes were incubated at room temp in the dark for 1 hour. […]

[2] = tested on: C4-2B Prostate Cell Line; assay: Dual label UC28 C/AnnexinV flow cytometry after SPB treatment; type: cell-based, human; conditions: for Total AnnexV / Total UC28C: 72 hours, UC28-GAR-CY5/AnnexV-FITC
Procedure: as §1
VO1 Apoptosis Detection Kit contains: (1) Fluorocein-isothiocyante (FITC) conjugated AnnexinV [AnnexinV01] 1 ml (2) Propidium Iodide [Annex-Pi] 2.0 ml (3) 4× Binding Buffer [Annex-B] 20.0 ml. Vendor is CalTag Laboratories, Inc., 1849 Bayshore Boulevard #200 Burlingame, Calif. 94010.
as §2, §3
MsIgG-FITC mouse conjugated-FITC was used for background control for AnnexinV01. Vendor is Becicman Coulter, Inc. Diagnostic Division, 11800 SW 147th Ave. M/S 42-003, P.O. Box 169015, Miami, Floridia 33116-9015.
as §7, with “processing. […]” for “processing.”
UC28 and Annexin V were co-labeled in the three cell lines to assess the induction of UC28 by SPB and its correlation to the induction of apoptosis. […] It may be noted that in previously published experiments, AnnexinV and PI were run in combination with several prostate cancer cell lines, one of which was LNCaP, but not with C4-2B or MLC-SV40. It was determined that they produced similar dose-response kinetics when exposed to 0.5-25 mM of SPB for 72 hours (Ng et al., 1989). That is, as the dose of SPB increased, so did the membrane perturbation events measured by these two methods.

[3] = Percent viability by Trypan blue dye exclusion after SPB treatment; type: cell-based; conditions: prostate cell lines, treated cells, SPB 0.5-25.0 mM, untreated cells about 85%
Procedure: as §1

[4] = tested on: LNCaP Prostate Cell Line; assay: Dual label UROC28/Bcl-2 flow cytometry after SPB treatment; type: cell-based, human
Procedure: as §1, §2, §3, §4, §5, §6, §7
(a) Tissue culture cells (MLC-SV40, LNCaP and C 4-2B) were aliquoted at concentration of 1×10^6 per teach 12×75 mm polystyrene tube. […]

Compound: O=C([O-])CCCc1ccccc1.[Na+] [SPB, 4-Phenylbutyric Acid, Sodium Salt]
- Total Bcl-2 ([1]; 5.0 mM SPB): 5.4%
- Total UC2BC ([1]; 5.0 mM SPB): 96.0%
- Total Bcl-2 ([1]; 10 mM SPB): 0.3%
- Total UC2BC ([1]; 10 mM SPB): 93.9%
- Bc1-2 protein expression ([1]; SPB, summary of Table 7): markedly depressed
- UC28 expression ([1]; SPB, summary of Table 7): significantly up regulated
- Total AnnexV ([2]; 0.5 mM SPB): 41.1%
- Total UC28C ([2]; 0.5 mM SPB): 29.8%
- Total AnnexV ([2]; 5.0 mM SPB): 94.0%
- Total UC28C ([2]; 5.0 mM SPB): 81.8%
- Total AnnexV ([2]; 10 mM SPB): 80.0%
- Total UC28C ([2]; 10 mM SPB): 88.0%
- Total AnnexV ([2]; 25 mM SPB): 82.3%
- Total UC28C ([2]; 25 mM SPB): 96.5%
- UC28 up regulation ([2]; SPB, summary of Table 5): up regulated
- induction of apoptosis ([2]; SPB, summary of Table 5): induced
- viability at 72 h [3]: 15 to 70%
- Total Bcl-2 ([4]; 5.0 mM SPB): 23.8%
- Total UC2BC ([4]; 5.0 mM SPB): 87.7%
- Total Bcl-2 ([4]; 10 mM SPB): 15.6%
- Total UC2BC ([4]; 10 mM SPB): 83.0%
